Results as given in patent publication US20040191240A1, “Composition and method for nerve regeneration” (priority 2003, published 2004).
Entries after “also recorded” stand apart in the source; their conditions may differ. Where no end group is shown, it is not given here.

What was measured:
[1] = tested on: cerebellar granule neurons from P7 rats; experiment: Neurite outgrowth (growth) assay, cerebellar neurons; format: cell-based, rat; conditions: data not shown
[2] = tested on: cerebellar granule neurons; experiment: Ca2+ fluorescence imaging (Oregon-green 488BAPTA-1 and Fura Red); format: cell-based; conditions: p7 rat cerebellar granule neurons; inhibitor or antibody with MAG
DRG neurons = experiment: Neurite outgrowth assay, adult DRG neurons; format: cell-based, mouse; conditions: peptide 100 nM
cerebellar neurons = experiment: Neurite outgrowth assay, post-natal cerebellar neurons; format: cell-based, mouse
RhoA = experiment: Affinity-precipitation of GTP-RhoA in cerebellar neurons; format: cell-based, mouse; conditions: TAT-Pep5 1 μM; Nogo peptide 4 μM, MAG-Fc 25 μg/ml; 30 min
Description: 293 cells were transfected with pcDNA3 vectors containing wild type RhoA whose NH2-terminus is tagged with HA (Yamashita, T. et al., Neuron. 24:585-593, 1999) and/or full-length human p75 by lipofection using Lipofectamine 2000 (Gibco BRL). Cerebellar neurons from P9 mice were isolated as described previously (Cai et al, Neuron, 22:89-101, 1999). Cells were lysed in 50 mM Tris (pH 7.5), 1% Triton X-100, 0.5% sodium deoxycholate, 0.1% SDS, 500 mM NaCl, 10 mM MgCl2, with leupeptin and aprotinin, each at 10 μg/ml. Cell lysates were clarified by centrifugation at 13,000×g at 4° C. for 10 min, and the supernatants were incubated with the 20 μg of GST-Rho binding domain of Rhotekin beads (Upstate Biotech.) at 4° C. for 45 min. The beads were washed 4 times with washing buffer (50 mM Tris (pH 7.5) containing 1% Triton X-100, 150 mM NaCl, 10 mM MgCl2, 10 μg/ml each of leupeptin and aprotinin). Bound Rho proteins were detected by Western blotting using a monoclonal antibody against RhoA (Santa Cruz Biotechnology).
Amino-terminally FLAG-tagged human p75 or the deletion mutants of p75 ICD were cloned into pcDNA3.1 expression plasmid, and were transfected with 293T cells. […] Bound Rho proteins were detected by Western blotting using a monoclonal antibody against RhoA (Santa Cruz Biotechnology).

male Wistar rats [3] = experiment: Spinal cord injury (dorsal half dissected, ninth thoracic vertebra), agent pumped to the injured site; format: in vivo, rat; conditions: continuous osmotic pump to the injured site; versus control peptide
Description: 200 g male Wistar rats were used. After the ninth thoracic vertebrae laminectomy was performed, the dorsal half of the spinal cord was dissected. A continuous osmotic pump was used to continuously administer either TAT(PTD domain)-fused Pep5 (TAT-[…]) (SEQ ID NO. 2) or TAT(PTD domain)-fused control peptide (TAT-[…]) (SEQ ID NO. 15) to the injured site for 6 weeks ([…]). In this case, the tip of a tube connected to the pump was left in the medullary space. After spinal cord injury, the functional recovery was assessed using the BBB score. The animals were observed on day 7, 14, 21, 28, 35, and 42 after injury. These experiments were carried out using techniques described in Fournier A. E., Takizawa, B. T., Strittmatter, S. M., J. Neurosci. 2003, 23, 1416-1423.
200 g male Wistar rats were used. After the ninth thoracic vertebrae laminectomy was performed, the dorsal half of the spinal cord was dissected. A continuous osmotic pump was used to continuously administer either TAT-fused Pep5 or TAT (PTD domain)-fused control peptide to the injured site.

mice = experiment: Spinal cord injury, similar experiments for mice (Example 2-7); format: in vivo, mouse
Description: Similar experiments were carried out for mice as described above.

[4] = biological target: Rho-kinase (GST-CAT; aa 6-553) (Bos taurus, UniProt Q28021); experiment: In vitro binding assay of p21 and Rho-kinase; conditions: p21 1 nM
[5] = tested on: Rho kinase fragment (aa 1-543); experiment: Rho-kinase kinase assay in vitro (S6 kinase substrate peptide); format: biochemical
male Wistar rats [6] = experiment: Spinal cord injury, p21 and TAT-bound p21, BBB score; format: in vivo, rat; conditions: osmotic pump to the injured site for 2 weeks; observed from day 2 for 6 weeks
Description: 200 g male Wistar rats were used. After a ninth thoracic vertebrae laminectomy was performed, the dorsal half of the spinal cord was dissected. […] In this case, the tip of a tube connected to the pump was left in the medullary space.
After spinal cord injury, the functional recovery was assessed using the BBB score (Basso-Beattie-Bresnahan (BBB) Locomotor Rating; Basso, D. M., Beattie, M. S., Bresnahan, J. C., J. Neurotrauma 12 (1):1-21 (1995) ). Observation was carried out from day 2 after injury for 6 weeks.

Chain of Rho-kinase (GST-CAT; aa 6-553) (Q28021 6-553): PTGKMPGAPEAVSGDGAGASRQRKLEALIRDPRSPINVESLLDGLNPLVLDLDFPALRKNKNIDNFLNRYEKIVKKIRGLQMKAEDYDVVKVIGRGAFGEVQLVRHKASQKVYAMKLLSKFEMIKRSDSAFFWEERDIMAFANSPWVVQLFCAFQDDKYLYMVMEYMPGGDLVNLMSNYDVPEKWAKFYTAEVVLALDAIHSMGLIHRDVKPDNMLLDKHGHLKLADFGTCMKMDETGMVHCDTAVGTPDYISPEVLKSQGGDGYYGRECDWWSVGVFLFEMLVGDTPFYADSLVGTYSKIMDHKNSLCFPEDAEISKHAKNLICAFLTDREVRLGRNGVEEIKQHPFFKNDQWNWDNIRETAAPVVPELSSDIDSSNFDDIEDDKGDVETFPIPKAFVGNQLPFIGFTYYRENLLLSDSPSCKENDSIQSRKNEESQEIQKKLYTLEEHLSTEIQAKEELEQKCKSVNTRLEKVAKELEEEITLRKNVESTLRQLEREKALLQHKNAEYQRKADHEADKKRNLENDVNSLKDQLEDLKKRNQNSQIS

## Cn1c2ccccc2c2c3c(c4c5ccccc5n(CCC#N)c4c21)CNC3=O [G06976]
[1]
  neurite outgrowth by MAG-Fc or Nogo peptide when another PKC inhibitor was used: Same results

## COc1ccc2c(c1)CC[C@@H]1[C@@H]2CC[C@]2(C)[C@@H](NCCCCCCN3C(=O)C=CC3=O)CC[C@@H]12 [U73122]
[2]
  effect on Ca2+ elevation induced by MAG: blocked

## TAT-CFFRGGFFNHNPRYC ({TAT}-CFFRGGFFNHNPRYC; cysteine pairing not given here) [TAT-Pep5, Pep5 fused with the amino-terminal 11 amino acid protein transduction domain of HIV TAT]
DRG neurons
  responsiveness of DRG neurons to MAG (25 μg/ml) and the Nogo peptide (4 μM): abolished their responsiveness
Cerebellar neurons
  inhibitory effect of MAG (25 μg/ml) and the Nogo peptide (4 μM) on post-natal cerebellar neurons: efficiently silenced the inhibitory effect
RhoA
  activation of RhoA induced by MAG-Fc or the Nogo peptide: inhibited the activation of RhoA; also recorded: completely abolishes these effects
Male Wistar rats [3]
  nerve regeneration after spinal cord injury: nerve regeneration was significantly observed
mice
  nerve regeneration after spinal cord injury: nerve regeneration was similarly observed

## p21: recombinant full-length p21 (1-164 in SEQ ID NO. 23), cyclin-dependent protein kinase inhibitor
[4]
  in vitro interaction with the catalytic region of Rho-kinase: bound to each other in vitro
[5]
  Rho-kinase activity toward S6 kinase substrate peptide: inhibited the Rho-kinase activity toward S6 kinase substrate peptide in a dose-dependent manner
Male Wistar rats [6]
  functional recovery after spinal cord injury (BBB score): not sufficiently observed
